Experimental data taken from patent US8969554B2, “6-acyl-1,2,4-triazine-3,5-dione derivative and herbicides” (Kumiai Chemical Industry Co., Ltd., priority 2010, dated 2015).

Assays:
Assay type in all cases: in vivo
Echinochloa crus-galli [1] = test: Herbicidal activity by field foliage treatment (Test example 3); parameters: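 index 0 to 10 in 10% steps of herbicidal effect with 10 meaning complete death and 0 below 10%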; details: 1000 g effective component per hectare, day 14 after the treatment
Outline: (§1)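 Potted field-soil plants grown 2 weeks in a greenhouse were sprayed over the whole foliage with diluted wettable powder at 1000 L/ha, delivering 1000 g active ingredient per hectare. Herbicidal effect scored by visual criteria 14 days after treatment.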

Indian millet [2] = test: Herbicidal activity by field soil treatment (Test example 2); parameters: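 index 0 to 10 in 10% steps of herbicidal effect with 10 meaning complete death and 0 below 10%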; details: 1000 g effective component per hectare, day 21 after the treatment
Outline: (§2)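 Seeds of the four weeds sown in field soil in pots; wettable powder diluted in water sprayed pre-emergence on soil surface at 1000 L/ha, giving 1000 g active per hectare. Greenhouse grown; herbicidal effect scored on day 21 after treatment by set criteria.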

A. retroflexus [3] = test: as above; parameters: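 index 0 to 10 in 10% steps of herbicidal effect with 10 meaning complete death and 0 below 10%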; details: 1000 g effective component per hectare, day 21 after the treatment
Outline: as §2

Echinochloa crus-galli [4] = test: as above; parameters: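 index 0 to 10 in 10% steps of herbicidal effect with 10 meaning complete death and 0 below 10%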; details: 1000 g effective component per hectare, day 21 after the treatment
Outline: as §2

foxtail = test: as above; details: 1000 g effective component per hectare, day 21 after the treatment;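 note: index 0 to 10 in 10% steps of herbicidal effect with 10 meaning complete death and 0 below 10%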
Outline: as §2

Echinochloa oryzicola = test: Herbicidal activity by paddy field soil treatment (Test Example 1); parameters: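 index 0 to 10 in 10% steps of herbicidal effect with 10 meaning complete death and 0 below 10%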; details: 1000 g of effective component per hectare, evaluated on day 21 after the treatment, criteria of Table 72
Outline: (§3)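 Paddy soil in pots sown with seeds, flooded to 3 cm; next day wettable powder diluted in water applied to water surface at 1000 g active ingredient/ha. Greenhouse-grown; herbicidal effect scored on day 21 after treatment against rating criteria.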

Monochoria vaginalis = test: as above; parameters: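 index 0 to 10 in 10% steps of herbicidal effect with 10 meaning complete death and 0 below 10%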; details: 1000 g of effective component per hectare, evaluated on day 21 after the treatment, criteria of Table 72
Outline: as §3

Scirpus juncoides Rocxb. = test: as above; parameters: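 index 0 to 10 in 10% steps of herbicidal effect with 10 meaning complete death and 0 below 10%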; details: applied on water surface, 1000 g of effective component per hectare, day 21 after the treatment
Outline: as §3

Setaria viridis = test: Herbicidal activity by field foliage treatment (Test example 3); details: 1000 g effective component per hectare, day 14 after the treatment;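 note: index 0 to 10 in 10% steps of herbicidal effect with 10 meaning complete death and 0 below 10%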
Outline: as §1

Indian millet [5] = test: as above; parameters: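 index 0 to 10 in 10% steps of herbicidal effect with 10 meaning complete death and 0 below 10%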; details: 1000 g effective component per hectare, day 14 after the treatment
Outline: (§4)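 Field soil in pots; Indian millet and A. retroflexus grown 2 weeks in greenhouse, then sprayed over whole plant with water-diluted wettable powder at 1000 L/ha, giving 1000 g active component/ha. Herbicidal effect scored by set criteria on day 14 after treatment.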

A. retroflexus [6] = test: as above; parameters: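 index 0 to 10 in 10% steps of herbicidal effect with 10 meaning complete death and 0 below 10%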; details: 1000 g effective component per hectare, day 14 after the treatment
Outline: as §4

Cn1nc(C(=O)C2=C(O)CCCC2=O)c(=O)n(C)c1=S [I-265]
herbicidal effect index, Echinochloa crus-galli (Echinochloa crus-galli [1]): 8
herbicidal effect index, Abutilon theophrasti (Indian millet [2]): 10
herbicidal effect index, Amaranthus retroflexus (A. retroflexus [3]): 10
herbicidal effect index, Echinochloa crus-galli (Echinochloa crus-galli [4]): 10
herbicidal effect index, Setaria viridis (foxtail): 10
Herbicidal effects index number, Echinochloa oryzicola (Echinochloa oryzicola): 10
Herbicidal effects index number, Monochoria vaginalis (Monochoria vaginalis): 10
herbicidal effect index, S. juncoides Rocxb. (Scirpus juncoides Rocxb.): 10
herbicidal effect index, Setaria viridis (Setaria viridis): 9
herbicidal effect index, Abutilon theophrasti (Indian millet [5]): 9
herbicidal effect index, Amaranthus retroflexus (A. retroflexus [6]): 10

Cn1nc(C(=O)C2=C(O)CCCC2=O)c(=O)n(-c2cccc(Cl)c2Cl)c1=O [I-83]
herbicidal effect index, Echinochloa crus-galli (Echinochloa crus-galli [1]): 10
herbicidal effect index, Abutilon theophrasti (Indian millet [2]): 10
herbicidal effect index, Amaranthus retroflexus (A. retroflexus [3]): 10
herbicidal effect index, Echinochloa crus-galli (Echinochloa crus-galli [4]): 9
herbicidal effect index, Setaria viridis (foxtail): 9
Herbicidal effects index number, Echinochloa oryzicola (Echinochloa oryzicola): 10
Herbicidal effects index number, Monochoria vaginalis (Monochoria vaginalis): 10
herbicidal effect index, S. juncoides Rocxb. (Scirpus juncoides Rocxb.): 10
herbicidal effect index, Setaria viridis (Setaria viridis): 10
herbicidal effect index, Abutilon theophrasti (Indian millet [5]): 10
herbicidal effect index, Amaranthus retroflexus (A. retroflexus [6]): 10

C#CCn1c(=O)c(C(=O)C2=C(O)CCCC2=O)nn(C)c1=O [I-14]
herbicidal effect index, Echinochloa crus-galli (Echinochloa crus-galli [1]): 9
herbicidal effect index, Abutilon theophrasti (Indian millet [2]): 10
herbicidal effect index, Amaranthus retroflexus (A. retroflexus [3]): 10
herbicidal effect index, Echinochloa crus-galli (Echinochloa crus-galli [4]): 10
herbicidal effect index, Setaria viridis (foxtail): 10
Herbicidal effects index number, Echinochloa oryzicola (Echinochloa oryzicola): 10
Herbicidal effects index number, Monochoria vaginalis (Monochoria vaginalis): 10
herbicidal effect index, S. juncoides Rocxb. (Scirpus juncoides Rocxb.): 10
herbicidal effect index, Setaria viridis (Setaria viridis): 10
herbicidal effect index, Abutilon theophrasti (Indian millet [5]): 10
herbicidal effect index, Amaranthus retroflexus (A. retroflexus [6]): 10

Cn1nc(C(=O)C2=C(O)CCCC2=O)c(=O)n(-c2ccccc2F)c1=O [I-54]
herbicidal effect index, Echinochloa crus-galli (Echinochloa crus-galli [1]): 10
herbicidal effect index, Abutilon theophrasti (Indian millet [2]): 10
herbicidal effect index, Amaranthus retroflexus (A. retroflexus [3]): 10
herbicidal effect index, Echinochloa crus-galli (Echinochloa crus-galli [4]): 10
herbicidal effect index, Setaria viridis (foxtail): 10
Herbicidal effects index number, Echinochloa oryzicola (Echinochloa oryzicola): 10
Herbicidal effects index number, Monochoria vaginalis (Monochoria vaginalis): 10
herbicidal effect index, S. juncoides Rocxb. (Scirpus juncoides Rocxb.): 10
herbicidal effect index, Setaria viridis (Setaria viridis): 10
herbicidal effect index, Abutilon theophrasti (Indian millet [5]): 10
herbicidal effect index, Amaranthus retroflexus (A. retroflexus [6]): 10

Cn1nc(C(=O)C2=C(O)CCCC2=O)c(=O)n(N2CCCCC2)c1=O [I-304]
herbicidal effect index, Echinochloa crus-galli (Echinochloa crus-galli [1]): 10
herbicidal effect index, Abutilon theophrasti (Indian millet [2]): 10
herbicidal effect index, Amaranthus retroflexus (A. retroflexus [3]): 10
herbicidal effect index, Echinochloa crus-galli (Echinochloa crus-galli [4]): 10
herbicidal effect index, Setaria viridis (foxtail): 9
Herbicidal effects index number, Echinochloa oryzicola (Echinochloa oryzicola): 10
Herbicidal effects index number, Monochoria vaginalis (Monochoria vaginalis): 10
herbicidal effect index, S. juncoides Rocxb. (Scirpus juncoides Rocxb.): 10
herbicidal effect index, Setaria viridis (Setaria viridis): 10
herbicidal effect index, Abutilon theophrasti (Indian millet [5]): 9
herbicidal effect index, Amaranthus retroflexus (A. retroflexus [6]): 10

CC1CC(C)(C)C(=O)C(C(=O)c2nn(C)c(=O)n(-c3ccccc3)c2=O)=C1O (centres unmarked) [VI-7]
herbicidal effect index, Echinochloa crus-galli (Echinochloa crus-galli [1]): 10
herbicidal effect index, Abutilon theophrasti (Indian millet [2]): 10
herbicidal effect index, Amaranthus retroflexus (A. retroflexus [3]): 10
herbicidal effect index, Echinochloa crus-galli (Echinochloa crus-galli [4]): 10
herbicidal effect index, Setaria viridis (foxtail): 10
Herbicidal effects index number, Echinochloa oryzicola (Echinochloa oryzicola): 10
Herbicidal effects index number, Monochoria vaginalis (Monochoria vaginalis): 10
herbicidal effect index, S. juncoides Rocxb. (Scirpus juncoides Rocxb.): 10
herbicidal effect index, Setaria viridis (Setaria viridis): 10
herbicidal effect index, Abutilon theophrasti (Indian millet [5]): 10
herbicidal effect index, Amaranthus retroflexus (A. retroflexus [6]): 10

CCn1c(=O)c(C(=O)C2=C(O)CCCC2=O)nn(C)c1=O [I-2]
herbicidal effect index, Echinochloa crus-galli (Echinochloa crus-galli [1]): 9
herbicidal effect index, Abutilon theophrasti (Indian millet [2]): 10
herbicidal effect index, Amaranthus retroflexus (A. retroflexus [3]): 10
herbicidal effect index, Echinochloa crus-galli (Echinochloa crus-galli [4]): 10
herbicidal effect index, Setaria viridis (foxtail): 7
Herbicidal effects index number, Echinochloa oryzicola (Echinochloa oryzicola): 10
Herbicidal effects index number, Monochoria vaginalis (Monochoria vaginalis): 10
herbicidal effect index, S. juncoides Rocxb. (Scirpus juncoides Rocxb.): 10
herbicidal effect index, Setaria viridis (Setaria viridis): 10
herbicidal effect index, Abutilon theophrasti (Indian millet [5]): 10
herbicidal effect index, Amaranthus retroflexus (A. retroflexus [6]): 10

Cc1ccc(F)cc1-n1c(=O)c(C(=O)C2=C(O)CCCC2=O)nn(C)c1=O [I-118]
herbicidal effect index, Echinochloa crus-galli (Echinochloa crus-galli [1]): 9
herbicidal effect index, Abutilon theophrasti (Indian millet [2]): 9
herbicidal effect index, Amaranthus retroflexus (A. retroflexus [3]): 10
herbicidal effect index, Echinochloa crus-galli (Echinochloa crus-galli [4]): 10
herbicidal effect index, Setaria viridis (foxtail): 9
Herbicidal effects index number, Echinochloa oryzicola (Echinochloa oryzicola): 10
Herbicidal effects index number, Monochoria vaginalis (Monochoria vaginalis): 10
herbicidal effect index, S. juncoides Rocxb. (Scirpus juncoides Rocxb.): 10
herbicidal effect index, Setaria viridis (Setaria viridis): 10
herbicidal effect index, Abutilon theophrasti (Indian millet [5]): 10
herbicidal effect index, Amaranthus retroflexus (A. retroflexus [6]): 10

COc1ccc(-n2c(=O)c(C(=O)C3=C(O)CCCC3=O)nn(C)c2=O)cc1OC [I-93]
herbicidal effect index, Echinochloa crus-galli (Echinochloa crus-galli [1]): 9
herbicidal effect index, Abutilon theophrasti (Indian millet [2]): 10
herbicidal effect index, Amaranthus retroflexus (A. retroflexus [3]): 10
herbicidal effect index, Echinochloa crus-galli (Echinochloa crus-galli [4]): 7
herbicidal effect index, Setaria viridis (foxtail): 6
Herbicidal effects index number, Echinochloa oryzicola (Echinochloa oryzicola): 8
Herbicidal effects index number, Monochoria vaginalis (Monochoria vaginalis): 10
herbicidal effect index, S. juncoides Rocxb. (Scirpus juncoides Rocxb.): 10
herbicidal effect index, Setaria viridis (Setaria viridis): 9
herbicidal effect index, Abutilon theophrasti (Indian millet [5]): 10
herbicidal effect index, Amaranthus retroflexus (A. retroflexus [6]): 10

Cc1ccccc1-n1c(=O)c(C(=O)C2=C(O)CCCC2=O)nn(C)c1=O [I-57]
herbicidal effect index, Echinochloa crus-galli (Echinochloa crus-galli [1]): 10
herbicidal effect index, Abutilon theophrasti (Indian millet [2]): 10
herbicidal effect index, Amaranthus retroflexus (A. retroflexus [3]): 10
herbicidal effect index, Echinochloa crus-galli (Echinochloa crus-galli [4]): 10
herbicidal effect index, Setaria viridis (foxtail): 10
Herbicidal effects index number, Echinochloa oryzicola (Echinochloa oryzicola): 10
Herbicidal effects index number, Monochoria vaginalis (Monochoria vaginalis): 10
herbicidal effect index, S. juncoides Rocxb. (Scirpus juncoides Rocxb.): 10
herbicidal effect index, Setaria viridis (Setaria viridis): 10
herbicidal effect index, Abutilon theophrasti (Indian millet [5]): 10
herbicidal effect index, Amaranthus retroflexus (A. retroflexus [6]): 10

COc1cc(-n2c(=O)c(C(=O)C3=C(O)CCCC3=O)nn(C)c2=O)c(F)cc1Cl [I-297]
herbicidal effect index, Echinochloa crus-galli (Echinochloa crus-galli [1]): 9
herbicidal effect index, Abutilon theophrasti (Indian millet [2]): 9
herbicidal effect index, Amaranthus retroflexus (A. retroflexus [3]): 10
herbicidal effect index, Echinochloa crus-galli (Echinochloa crus-galli [4]): 10
herbicidal effect index, Setaria viridis (foxtail): 9
Herbicidal effects index number, Echinochloa oryzicola (Echinochloa oryzicola): 10
Herbicidal effects index number, Monochoria vaginalis (Monochoria vaginalis): 10
herbicidal effect index, S. juncoides Rocxb. (Scirpus juncoides Rocxb.): 10
herbicidal effect index, Setaria viridis (Setaria viridis): 9
herbicidal effect index, Abutilon theophrasti (Indian millet [5]): 8
herbicidal effect index, Amaranthus retroflexus (A. retroflexus [6]): 8

Cc1ncccc1-n1c(=O)c(C(=O)C2=C(O)CCCC2=O)nn(C)c1=O [I-277]
herbicidal effect index, Echinochloa crus-galli (Echinochloa crus-galli [1]): 10
herbicidal effect index, Abutilon theophrasti (Indian millet [2]): 7
herbicidal effect index, Amaranthus retroflexus (A. retroflexus [3]): 8
herbicidal effect index, Echinochloa crus-galli (Echinochloa crus-galli [4]): 8
herbicidal effect index, Setaria viridis (foxtail): 8
Herbicidal effects index number, Echinochloa oryzicola (Echinochloa oryzicola): 9
Herbicidal effects index number, Monochoria vaginalis (Monochoria vaginalis): 9
herbicidal effect index, S. juncoides Rocxb. (Scirpus juncoides Rocxb.): 10
herbicidal effect index, Setaria viridis (Setaria viridis): 9
herbicidal effect index, Abutilon theophrasti (Indian millet [5]): 9
herbicidal effect index, Amaranthus retroflexus (A. retroflexus [6]): 10

Cc1cccc(-n2c(=O)c(C(=O)C3=C(O)CCCC3=O)nn(C)c2=O)c1Cl [I-127]
herbicidal effect index, Echinochloa crus-galli (Echinochloa crus-galli [1]): 10
herbicidal effect index, Abutilon theophrasti (Indian millet [2]): 10
herbicidal effect index, Amaranthus retroflexus (A. retroflexus [3]): 10
herbicidal effect index, Echinochloa crus-galli (Echinochloa crus-galli [4]): 10
herbicidal effect index, Setaria viridis (foxtail): 8
Herbicidal effects index number, Echinochloa oryzicola (Echinochloa oryzicola): 10
Herbicidal effects index number, Monochoria vaginalis (Monochoria vaginalis): 10
herbicidal effect index, S. juncoides Rocxb. (Scirpus juncoides Rocxb.): 10
herbicidal effect index, Setaria viridis (Setaria viridis): 10
herbicidal effect index, Abutilon theophrasti (Indian millet [5]): 9
herbicidal effect index, Amaranthus retroflexus (A. retroflexus [6]): 10
